Assay results reported in patent publication US20130060013A1, “Compounds useful for treating neurodegenerative disorders” (SATORI PHARMACEUTICALS, INC., priority 2011, published 2013).

What was measured:
Format in all cases: cell-based
Conditions in all cases: Homo sapiens, compound 5 hours at 37° C., 1% DMSO, percent vehicle fit to 4 parameter curve
Aβ-40 = Aβ-40 level in conditioned media of 2B7 cells (MSD 3-PLEX ELISA)
Protocol: Assays were conducted to determine the ability of a Compound of Formula I to modulate […], and Aβ-38.
Human (6E10) Ab 3-PLEX elisa kits were purchased from Meso Scale Discovery Labs, 9328 Gaither Road, Gaithersburg, Md. 20877 (Catalog Number K15148E-3). Plates with capture antibodies were blocked for 1-2 hours at room temperature with 150 μL of the manufactures blocking reagent.
Cultured 2B7 cells in 96 well plate with 250 uL of media per well until confluent;
Prepared serial dilutions of compounds in DMSO at 100× the final desired concentration;
Washed wells with 2B7 cells 1× with 250 uL of media;
Diluted DMSO stocks 1:100 into media:
Added 250 μL of media containing compounds (1% DMSO) to wells with 2B7 cells for 5 hours at 37° C.
Diluted conditioned media: 1 part media with 1% DMSO and 1 part blocking buffer;
150 μL of the 250 μL of conditioned media were used.
Standard Curve Sample Prep:
Prepared per manufacturer's protocol (see above)
Seven point standard curve samples were prepared that contained Aβ-42, Aβ-40, and Aβ-38. The highest concentration of Aβ-42 and Aβ-38 was 3,000 pg/mL and the highest concentration of Aβ-40 was 10,000 pg/mL. Subsequent serial dilutions were 1:3 and the final composition of each sample was 1 part blocking buffer and 1 part cell medium containing 1% DMSO.
Overnight Sample Incubation:
Blocked plates are washed 5× with MSD wash buffer with a plate washer
25 uL of detection antibody and blocker G reagent in MSD blocking solution is added
25 uL of samples (1 part conditioned media containing 1% DMSO and 1 part MSD blocking buffer) are then added.
plates are incubated overnight at 4 degrees C. or 2 hours at room temp
Wash wells 5× with MSD wash buffer
Added 150 μL 2×MSD read buffer
A-Beta peptide levels for each peptide are calculated from the standard curve using the MSD software provided with the MSD 2400 Imager. Percent vehicle values for each compound dosage were then calculated and fit to a 4 parameter curve generating IC50 values.

Aβ-42 = Aβ-42 level in conditioned media of 2B7 cells (MSD 3-PLEX ELISA)
Outline: (§1)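 2B7 cells at confluence were exposed to compound dilutions in medium (1% DMSO final) for 5 h at 37 °C. Conditioned medium, diluted 1:1 in blocking buffer, was assayed by MSD 3-plex electrochemiluminescence ELISA, and levels were read from a seven-point standard curve. IC50 came from a 4-parameter fit of percent-of-vehicle values.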

Aβ-38 = Aβ-38 level in conditioned media of 2B7 cells (MSD 3-PLEX ELISA)
Outline: as §1

| Compound | IC50 (Aβ-40) | IC50 (Aβ-42) | IC50 (Aβ-38) |
| --- | --- | --- | --- |
| CCO[C@@H]([C@H]1C[C@@H](C)[C@H]2[C@H](O1)[C@H](O)[C@@]1(C)[C@@H]3CC[C@H]4C(C)(C)[C@@H](OC(=O)CN5CCOCC5)CCC45C[C@@]35CC[C@]21C)C(C)(C)O (stereo partly drawn) | 1000 to 10000 nM | < 1000 nM | < 1000 nM |
| CCO[C@@H]([C@H]1C[C@@H](C)[C@H]2[C@H](O1)[C@H](OCC)[C@@]1(C)[C@@H]3CC[C@H]4C(C)(C)[C@@H](O)CCC45C[C@@]35CC[C@]21C)C(C)(C)O (stereo partly drawn) | 1000 to 10000 nM | 1000 to 10000 nM | 1000 to 10000 nM |
| CO[C@@H]([C@H]1C[C@@H](C)[C@H]2[C@H](O1)[C@H](O)[C@@]1(C)[C@@H]3CC[C@H]4C(C)(C)[C@@H](OC5CN(C6CN(C)C6)CCO5)CCC45C[C@@]35CC[C@]21C)C(C)(C)O (stereo partly drawn) | 1000 to 10000 nM | < 1000 nM | < 1000 nM |
| CO[C@@H]([C@H]1C[C@@H](C)[C@H]2[C@H](O1)[C@H](O)[C@@]1(C)[C@@H]3CC[C@H]4C(C)(C)[C@@H](OC5CN(C6CCN(C)C6=O)CCO5)CCC45C[C@@]35CC[C@]21C)C(C)(C)O (stereo partly drawn) | > 10000 nM | < 1000 nM | < 1000 nM |
| CCO[C@@H]([C@H]1C[C@@H](C)[C@H]2[C@H](O1)[C@H](O)[C@@]1(C)[C@@H]3CC[C@H]4C(C)(C)[C@@H](O[C@H]5CN(CC(=O)N6CCC6)CCO5)CCC45C[C@@]35CC[C@]21C)C(C)(C)O (stereo partly drawn) | 1000 to 10000 nM | < 1000 nM | < 1000 nM |
| CCO[C@@H]([C@H]1C[C@@H](C)[C@H]2[C@H](O1)[C@H](O)[C@@]1(C)[C@@H]3CC[C@H]4C(C)(C)[C@@H](O[C@H]5CN([C@@H](C)C(=O)N6CCC6)CCO5)CCC45C[C@@]35CC[C@]21C)C(C)(C)O (stereo partly drawn) | > 10000 nM | < 1000 nM | 1000 to 10000 nM |
| CCO[C@@H]([C@H]1C[C@@H](C)[C@H]2[C@H](O1)[C@H](O)[C@@]1(C)[C@@H]3CC[C@H]4C(C)(C)[C@@H](O[C@H]5CN(CC(=O)N(C)C)CCO5)CCC45C[C@@]35CC[C@]21C)C(C)(C)O (stereo partly drawn) | 1000 to 10000 nM | < 1000 nM | < 1000 nM |
| CCO[C@@H]([C@H]1C[C@@H](C)[C@H]2[C@H](O1)[C@H](O)[C@@]1(C)[C@@H]3CC[C@H]4C(C)(C)[C@@H](OC5CN(CC(=O)N6CCOCC6)CCO5)CCC45C[C@@]35CC[C@]21C)C(C)(C)O (stereo partly drawn) | > 10000 nM | < 1000 nM | < 1000 nM |
| CO[C@@H]([C@H]1C[C@@H](C)[C@H]2[C@H](O1)[C@H](O)[C@@]1(C)[C@@H]3CC[C@H]4C(C)(C)[C@@H](O[C@H]5CN(CCN6CCOCC6)CCO5)CCC45C[C@@]35CC[C@]21C)C(C)(C)O (stereo partly drawn) | 1000 to 10000 nM | < 1000 nM | < 1000 nM |
| CO[C@@H]([C@H]1C[C@@H](C)[C@H]2[C@H](O1)[C@H](O)[C@@]1(C)[C@@H]3CC[C@H]4C(C)(C)[C@@H](O[C@H]5CN(CCN(C)C)CCO5)CCC45C[C@@]35CC[C@]21C)C(C)(C)O (stereo partly drawn) | > 10000 nM | < 1000 nM | 1000 to 10000 nM |
| CCO[C@@H]([C@H]1C[C@@H](C)[C@H]2[C@H](O1)[C@H](O)[C@@]1(C)[C@@H]3CC[C@H]4C(C)(C)[C@@H](O[C@H]5CN([C@@H](C)CN6CCC6)CCO5)CCC45C[C@@]35CC[C@]21C)C(C)(C)O (stereo partly drawn) | 1000 to 10000 nM | < 1000 nM | < 1000 nM |
| CCO[C@@H]([C@H]1C[C@@H](C)[C@H]2[C@H](O1)[C@H](O)[C@@]1(C)[C@@H]3CC[C@H]4C(C)(C)[C@@H](O[C@H]5CN([C@@H](C)CO)CCO5)CCC45C[C@@]35CC[C@]21C)C(C)(C)O (stereo partly drawn) | 1000 to 10000 nM | < 1000 nM | < 1000 nM |
| CCO[C@@H]([C@H]1C[C@@H](C)[C@H]2[C@H](O1)[C@H](O)[C@@]1(C)[C@@H]3CC[C@H]4C(C)(C)[C@@H](O[C@H]5CN([C@H](C)CO)CCO5)CC[C@@]45C[C@@]35CC[C@]21C)C(C)(C)O | 1000 to 10000 nM | < 1000 nM | 1000 to 10000 nM |
| CCO[C@@H]([C@H]1C[C@@H](C)[C@H]2[C@H](O1)[C@H](O)[C@@]1(C)[C@@H]3CC[C@H]4C(C)(C)[C@@H](O[C@H]5CN(CC(C)(C)O)CCO5)CCC45C[C@@]35CC[C@]21C)C(C)(C)O (stereo partly drawn) | 1000 to 10000 nM | < 1000 nM | < 1000 nM |
| CCO[C@@H]([C@H]1C[C@@H](C)[C@H]2[C@H](O1)[C@H](O)[C@@]1(C)[C@@H]3CC[C@H]4C(C)(C)[C@@H](O[C@H]5CN(C(C)(C)CO)CCO5)CCC45C[C@@]35CC[C@]21C)C(C)(C)O (stereo partly drawn) | 1000 to 10000 nM | < 1000 nM | < 1000 nM |
| CCO[C@@H](C1C[C@@H](C)[C@H]2C(O1)[C@H](O)[C@@]1(C)C3CC[C@H]4C(C)(C)[C@@H](O[C@H]5CN(C(=O)CC6CNC6)CCO5)CCC45C[C@@]35CC[C@]21C)C(C)(C)O (stereo partly drawn) | 1000 to 10000 nM | < 1000 nM | < 1000 nM |
| CCO[C@@H](C1C[C@@H](C)[C@H]2C(O1)[C@H](O)[C@@]1(C)C3CC[C@H]4C(C)(C)[C@@H](O[C@H]5CN(C(=O)CC6CN(C)C6)CCO5)CCC45C[C@@]35CC[C@]21C)C(C)(C)O (stereo partly drawn) | 1000 to 10000 nM | < 1000 nM | < 1000 nM |
| CCO[C@@H]([C@H]1C[C@@H](C)[C@H]2[C@H](O1)[C@H](O)[C@]1(C)[C@@H]3CC[C@H]4C(C)(C)[C@@H](O[C@H]5CN(C(=O)C6CNC6)CCO5)CC[C@@]45C[C@@]35CC[C@@]21C)C(C)(C)O | 1000 to 10000 nM | < 1000 nM | < 1000 nM |
| CCO[C@@H]([C@H]1C[C@@H](C)[C@H]2[C@H](O1)[C@H](O)[C@@]1(C)[C@@H]3CC[C@H]4C(C)(C)[C@@H](O[C@H]5CN(CCF)CCO5)CCC45C[C@@]35CC[C@]21C)C(C)(C)O (stereo partly drawn) | 1000 to 10000 nM | < 1000 nM | < 1000 nM |
| CCO[C@@H]([C@H]1C[C@@H](C)[C@H]2[C@H](O1)[C@H](O)[C@@]1(C)[C@@H]3CC[C@H]4C(C)(C)[C@@H](O[C@H]5CN(C(C)(C)COC)CCO5)CCC45C[C@@]35CC[C@]21C)C(C)(C)O (stereo partly drawn) | > 10000 nM | < 1000 nM | < 1000 nM |
| CCO[C@@H]([C@H]1C[C@@H](C)[C@H]2[C@H](O1)[C@H](O)[C@@]1(C)[C@@H]3CC[C@H]4C(C)(C)[C@@H](O[C@H]5CN(CCN6CCOC6=O)CCO5)CCC45C[C@@]35CC[C@]21C)C(C)(C)O (stereo partly drawn) | 1000 to 10000 nM | < 1000 nM | < 1000 nM |
| CCO[C@@H]([C@H]1C[C@@H](C)[C@H]2[C@H](O1)[C@H](O)[C@@]1(C)[C@@H]3CC[C@H]4C(C)(C)[C@@H](O[C@H]5CN([C@H](C)CF)CCO5)CCC45C[C@@]35CC[C@]21C)C(C)(C)O (stereo partly drawn) | > 10000 nM | 1000 to 10000 nM | 1000 to 10000 nM |
| CCO[C@@H]([C@H]1C[C@@H](C)[C@H]2[C@H](O1)[C@H](O)[C@@]1(C)[C@@H]3CC[C@H]4C(C)(C)[C@@H](O[C@H]5CN([C@@H](C)CF)CCO5)CC[C@@]45C[C@@]35CC[C@]21C)C(C)(C)O | > 10000 nM | 1000 to 10000 nM | 1000 to 10000 nM |
